This note sets out measurements from ChEMBL document CHEMBL4840325, “Discovery of an Unexpected 1,4-Oxazepine-Linked seco-Fluostatin Heterodimer by Inactivation of the Oxidoreductase-Encoding Gene flsP” (2021).

≈ marks a conversion by molar mass, not a printed value. Calls of active or inactive are those of the source. The rule behind the calls is not given here.

Experiment [1] deals with HepG2. Kind of experiment: Cytotoxicity against human HepG2 cells assessed as reduction in cell viability at 0.5 to 16 uM measured after 72 hrs by SRB assay. The settings on record: dose 0.5-16 µM. It counts as functional, cell-based.
In experiment [2] the test system is MCF7. In words: Cytotoxicity against human MCF7 cells assessed as reduction in cell viability at 0.5 to 16 uM measured after 72 hrs by SRB assay. The class given is functional, cell-based. The settings on record: dose 0.5-16 µM.
Experiment [3] has as its system Candida albicans. Kind of experiment: Antifungal activity against Candida albicans SC5314 assessed as fungal growth inhibition incubated for 16 to 18 hrs by broth microdilution method. It counts as functional. The settings on record: time 16-18 hrs.
The test system of experiment [4] is SF-268. Kind of experiment: Cytotoxicity against human SF-268 cells assessed as reduction in cell viability at 0.5 to 16 uM measured after 72 hrs by SRB assay. It counts as functional, cell-based. The settings on record: dose 0.5-16 µM.

As to `C[C@]12O[C@H]1[C@H](Nc1ccccc1C(=O)O)c1c(cc(O)c3c1C(=O)c1cccc(O)c1-3)C2=O`, the outcome in experiment [1], in experiment [2] and in experiment [4] was inactive. Besides, in experiment [3], the MIC turned out to be 100 µM (≈ 44.3 µg/mL).

`CC1(Nc2ccccc2C(=O)O)C(=O)c2cc(O)c3c(c2[C@@H](O)[C@@H]1O)C(=O)c1cccc(O)c1-3` (stereo partly specified): the outcome in experiment [1], in experiment [2] and in experiment [4] was inactive. For the same compound, the MIC in experiment [3] was determined as 100 µM (≈ 46.1 µg/mL).

Consider `CO[C@@H]1c2c(cc(O)c3c2C(=O)c2cccc(O)c2-3)C(=O)C(C)(Cl)[C@H]1O` (stereo partly specified), for which the outcome in experiment [1], in experiment [2] and in experiment [4] was inactive. Moreover, in experiment [3], the MIC was 100 µM (≈ 37.5 µg/mL).

`CC(=O)/C=C/c1c2c(c3c4c1c(O)nn4[C@@H]1c4c(cc(O)c5c4C(=O)c4cccc(O)c4-5)C(=O)[C@](C)(O3)[C@H]1O)-c1c(O)cccc1C2=O`: the result in experiment [1], in experiment [2] and in experiment [4] was inactive.

As for `C[C@]12O[C@H]1[C@H](n1oc(=O)c3ccccc31)c1c(cc(O)c3c1C(=O)c1cccc(O)c1-3)C2=O`, the outcome in experiment [1], in experiment [2] and in experiment [4] was inactive.

Take `CCC(C)C(=O)O[C@@H]1c2c(cc(O)c3c2C(=O)c2cccc(O)c2-3)C(=O)C(C)(Cl)[C@H]1O` (stereo partly specified): the outcome in experiment [1], in experiment [2] and in experiment [4] was inactive.
